Results taken from US7863449B2, “Modulators of muscarinic receptors” (Vertex Pharmaceuticals Incorporated, priority 2004, dated 2011).

Key:
M4 muscarinic receptor = molecular target: T1, M4 muscarinic receptor (Homo sapiens, UniProt P08173); assay: Functional mobilization of intracellular calcium (FLIPR), M4-CHO cells; assay type: cell-based; details: for Emax: 100% efficacy is the maximum response obtained using Carbachol as a control; for M4 Activity: M4-CHO cells, FLIPR calcium mobilization
T1 construct: expressed in transfected cells; host or cells: CHO (M4-CHO)
T1 sequence (P08173 1-479): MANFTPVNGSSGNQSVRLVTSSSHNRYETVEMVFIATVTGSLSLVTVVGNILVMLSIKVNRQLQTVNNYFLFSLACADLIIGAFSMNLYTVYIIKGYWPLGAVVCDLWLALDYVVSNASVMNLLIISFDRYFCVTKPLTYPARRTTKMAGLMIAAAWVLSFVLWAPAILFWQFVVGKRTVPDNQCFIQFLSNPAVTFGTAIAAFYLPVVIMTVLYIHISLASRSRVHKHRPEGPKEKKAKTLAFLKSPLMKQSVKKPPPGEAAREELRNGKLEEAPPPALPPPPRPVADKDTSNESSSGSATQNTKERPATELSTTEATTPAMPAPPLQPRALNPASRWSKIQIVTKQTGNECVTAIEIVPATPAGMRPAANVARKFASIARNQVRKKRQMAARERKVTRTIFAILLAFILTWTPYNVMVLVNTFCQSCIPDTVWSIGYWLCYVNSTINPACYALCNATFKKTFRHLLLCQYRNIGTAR
Description: (§1) Functional Mobilization of Intracellular Calcium to Determine Muscarinic Receptor Activity:
(§2) CHO cells expressing muscarinic receptors (M1 to M5) are grown as monolayers in tissue culture flasks at 37° C. in a humidified atmosphere containing 5% CO2 and passaged every 3-5 days. The growth media is Dulbecco's modified eagles medium (DMEM, Gibco Cat# 12430-054), containing 25 mM Hepes and supplemented with Fetal Bovine Serum (Hyclone, cat# SH30071.03), 0.1 mM of MEM non-essential amino acids (GIBCO, Cat# 11140-050), 1 mM MEM Sodium Pyruvate (GIBCO Cat# 11360-070) and 100 units/ml of Penicillin G and 100 μg/ml of Streptomycin (GIBCO Cat# 15140-122). The recombinant muscarinic receptor cell lines are grown under antibiotic pressure with media containing 25 μg/ml zeocin and 500 μg/ml G418 (M1-CHO), 4 μg/ml puromycin, 50 μg/ml zeocin and 2.5 μg/ml blasticidin (M2 and M4-CHO) or 50 μg/ml zeocin and 4 μg/ml puromycin (M3 and M5-CHO).
(§3) Cells are harvested at 80-90% confluence using Versene (GIBCO Cat# 15040-066), collected by centrifugation and seeded 18-24 hrs prior to running the calcium assay at a density of 5,000-10,000 cells/well in […], clear-bottomed 384-well plates (BD Biocoat, poly-D-lysine, Cat#356663). The day of the experiment, the cells are washed with a plate washer (Bioteck Instruments, ELX 405) using bath1 buffer (140-mM NaCl, 4.5-mM KCl, 2-mM CaCl2, 1-mM MgCl2, 10-mM Hepes-Na, 10-mM Glucose, pH 7.4, with NaOH) containing 1 mM Probenecid. Next, the calcium dye Fluo-3 (25 μl/well of Fluo-3 AM at 4 μM, Molecular Probes F-1241, in Bath 1 buffer containing 1 mM Probenecid) is added to the 25 μl of Bath 1 remaining in each well after the plate wash and the dye is loaded at 37° C. in the tissue culture incubator for 60-90 min. The fluorescent dye is removed using the plate washer with Bath 1 containing 1 mM Probenecid, leaving 25 μl/well of this solution after the wash. Alternatively, cells can be loaded with the calcium indicator from Molecular Devices (Calcium 3 Assay Reagents, Cat # R7181) adding 5 μl of a 5× solution dye in Bath 1 containing 1 mM Probenecid (10 ml per dye flask cat# R7182 to generate a solution 20×) to 20 μl of the same buffer. After loading for 60 min, the experiment can be run without having to remove the dye.
(§4) Compounds are prepared at a 2× fold concentration in a 96-well plate (round bottom, Costar Corning cat# 3656), by reconstituting the pre-spotted compounds in bath 1 containing 1 mM probenecid. The final concentration DMSO is 0.5%, and the amount of DMSO is normalized across the assay plate. To determine an agonist action of the compounds on muscarinic receptors, the reconstituted compounds are added (25 μl compound/well) to the cell assay plate (containing 25 μl/well) using the multi-channel robotic system of the FLIPR 3 Instrument (Molecular Devices, Sunnyvale, Calif.). To determine a functional inhibitory action of the compounds on muscarinic receptors, the reconstituted compounds are added (25 μl compound/well) to the assay plate and pre-incubated for 15 min prior to adding 25 μl of Carbachol at 3× the EC80 for each muscarinic subtype. Alternatively, the compounds can be co-applied simultaneously with the agonist. In both assay modes, the fluorescence is recorded for 60 sec (excitation wavelength is […] and emission wavelength 540 nm) using the FLIPR 3 instrument.
(§5) The potency, efficacy and selectivity of the muscarinic compounds were evaluated by screening the compound activity across the whole family (M1 to M5 cells). Compounds were also screened for activity on other proteins such as other GPCRs and ion channels to determine selectivity on M4 receptors.

M1 muscarinic receptor = molecular target: T2, M1 muscarinic receptor (Homo sapiens, UniProt P11229); assay: Functional mobilization of intracellular calcium (FLIPR), M1-CHO cells; assay type: cell-based; details: for Emax: 100% efficacy is the maximum response obtained using Carbachol as a control; for M1 Activity: M1-CHO cells, FLIPR calcium mobilization
T2 construct: expressed in transfected cells; host or cells: CHO (M1-CHO)
T2 sequence (P11229 1-460): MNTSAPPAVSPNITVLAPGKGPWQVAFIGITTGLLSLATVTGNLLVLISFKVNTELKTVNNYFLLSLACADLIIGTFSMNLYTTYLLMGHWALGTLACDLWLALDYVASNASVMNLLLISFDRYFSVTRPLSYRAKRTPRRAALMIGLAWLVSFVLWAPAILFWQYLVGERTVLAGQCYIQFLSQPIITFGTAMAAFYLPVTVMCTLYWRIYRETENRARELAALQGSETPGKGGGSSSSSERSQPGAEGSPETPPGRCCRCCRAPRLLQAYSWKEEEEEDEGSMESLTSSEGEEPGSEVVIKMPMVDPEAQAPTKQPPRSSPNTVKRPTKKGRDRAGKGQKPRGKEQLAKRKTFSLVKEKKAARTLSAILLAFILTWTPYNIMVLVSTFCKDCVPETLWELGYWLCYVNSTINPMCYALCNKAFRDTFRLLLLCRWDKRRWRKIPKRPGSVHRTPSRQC
Description: as §1, §2, §3, §4, §5

Row | SMILES | Emax (M4 muscarinic receptor) | M4 Activity (M4 muscarinic receptor) | Emax (M1 muscarinic receptor) | M1 Activity (M1 muscarinic receptor)
1 | CCOC(=O)N1CC(CN2CCC3(CC2)CN(C(C)=O)Cc2ccccc23)C1 [compound 1] | < 25% | ++ (activity was measured to be from 1.0 μM to 5.0 μM) | 25 to 100% | ++ (activity was measured to be from 1.0 μM to 5.0 μM)
2 | CC(=O)N1Cc2ccccc2C2(CCN(CC3CCC(C)=CC3C)CC2)C1 (stereo not drawn) [compound 2] | < 25% | – | < 25% | –
3 | CN(C)S(=O)(=O)N1Cc2ccccc2C2(CCN(C3CC4CCC(C3)N4C(=O)O[C@@H]3CCOC3)CC2)C1 (stereo partly drawn) [compound 3] | 25 to 100% | +++ (activity was measured to be less than 1.0 μM) | 25 to 100% | +++ (activity was measured to be less than 1.0 μM)
4 | CC(=O)N1Cc2ccccc2C2(CCN(C3(C)CCCCC3)CC2)C1 [compound 4, 1-(1′-(1-methylcyclohexyl)-1H-spiro[isoquinoline-4,4′-piperidine]-2(3H)-yl)ethanone] | 25 to 100% | +++ (activity was measured to be less than 1.0 μM) | 25 to 100% | ++ (activity was measured to be from 1.0 μM to 5.0 μM)
5 | CC(=O)N1Cc2ccccc2C2(CCN(Cc3ccncc3)CC2)C1 [compound 5] | < 25% | + (activity was measured to be greater than 5.0 μM) | < 25% | + (activity was measured to be greater than 5.0 μM)
6 | CCOC(=O)N1CCC(N2CCC3(CC2)CN(C(=O)CC)Cc2ccccc23)CC1 [compound 6] | 25 to 100% | +++ (activity was measured to be less than 1.0 μM) | 25 to 100% | +++ (activity was measured to be less than 1.0 μM)
7 | CCCOC(=O)N1C2CCC1CC(N1CCC3(CC1)CN(C(=O)N(C)C)Cc1ccccc13)C2 (stereo not drawn) [compound 7] | 25 to 100% | +++ (activity was measured to be less than 1.0 μM) | 25 to 100% | +++ (activity was measured to be less than 1.0 μM)
8 | CCOC(=O)N1C2CCC1CC(N1CCC3(CC1)CN(C(=O)OC(C)C)Cc1ccccc13)C2 (stereo not drawn) [compound 8] | 25 to 100% | +++ (activity was measured to be less than 1.0 μM) | 25 to 100% | +++ (activity was measured to be less than 1.0 μM)
9 | CCOC(=O)N1CCC(N2CCC3(CC2)CN(CC#Cc2ccccc2)Cc2ccccc23)CC1 [compound 9] | 25 to 100% | +++ (activity was measured to be less than 1.0 μM) | 25 to 100% | +++ (activity was measured to be less than 1.0 μM)
10 | CCOC(=O)N1CCC(N2CCC3(CC2)CN(C(=O)C2CCCC2)Cc2ccccc23)CC1 [compound 10] | < 25% | ++ (activity was measured to be from 1.0 μM to 5.0 μM) | 25 to 100% | +++ (activity was measured to be less than 1.0 μM)
11 | CCOC(=O)N1CCC(CN2CCC3(CC2)CN(C(=O)OCC)Cc2ccccc23)CC1 [compound 11] | 25 to 100% | +++ (activity was measured to be less than 1.0 μM) | 25 to 100% | +++ (activity was measured to be less than 1.0 μM)
12 | CCOC(=O)N1C2CCC1CC(N1CCC3(CC1)CN(c1ccc(C)c(C)c1)Cc1ccccc13)C2 (stereo not drawn) [compound 12] | 25 to 100% | +++ (activity was measured to be less than 1.0 μM) | 25 to 100% | +++ (activity was measured to be less than 1.0 μM)
13 | CC(=O)N1Cc2ccccc2C2(CCN(C3CC4CCC(C3)N4C(=O)O[C@@H]3CCOC3)CC2)C1 (stereo partly drawn) [compound 13] | 25 to 100% | +++ (activity was measured to be less than 1.0 μM) | 25 to 100% | +++ (activity was measured to be less than 1.0 μM)
14 | CCOC(=O)N1C2CCC1CC(N1CCC3(CC1)CN(C(=O)OC1CCCC1)Cc1ccccc13)C2 (stereo not drawn) [compound 14] | 25 to 100% | +++ (activity was measured to be less than 1.0 μM) | 25 to 100% | +++ (activity was measured to be less than 1.0 μM)
